“Also recorded” adds a separate entry of the source. Read-outs that look alike come from different tables or passages of the source.
Assays:
[1] = tested on: Histone deacetylase (HDAC); assay: Histone deacetylase assay (Fluor-de-Lys) in MCF-7 cells; assay type: cell-based, human; conditions: MCF-7, 24 h, increasing concentrations; read-out: IC50 for cellular inhibition of HDAC activity
Description: Histone deacetylase activity was determined using Fluor-de-Lys® HDAC fluorometric activity assay kit (Enzo Life Sciences International, Inc., Plymount Meeting, Pa., U.S.A.). […] Fluorescence was measured using a Fluoroskan Ascent FL (Labsystem, Finland) plate reader, with excitation at 360 nm and emission at 460 nm. For comparison purpose, the HDAC activity was also measured in nuclear extracts of MCF-7-treated cells by means of the same fluorometric activity assay kit. In this latter case, MCF-7 nuclear extracts were obtained as follow: cell pellets were re-suspended in lysis buffer [Tris.HCl (10 mM, pH 8.0), KCl (60 mM), EDTA (1.2 mM), DTT (1 mM), PMSF (0.05 mM), NP-40 (0.05%)] and kept on ice for 10 min. Subsequently, samples were centrifuged at 1000 g and re-suspended in the nuclear extraction buffer [Tris.HCl (20 mM, (pH 8.0), NaCl (420 mM), MgCl2 (0.7 mM), EDTA (0.25 mM), glycerol (25%)] for 30 min at 4° C., and then centrifuged at 15000 g for 15 min at 4° C.
The complexes described here were specifically designed to release either VPA of PhB inside the cells in the hope that they will inhibit HDAC activity paving the way for more efficient DNA platination. Thus, in addition to measuring the levels of DNA platination, we also measured the ability of these pro-drugs to inhibit HDAC activity in cells. […] For comparison purposes, the HDAC inhibitory effect determined by tested complexes was also assayed in isolated nuclei of MCF-7 treated cells (FIG. 3B).
The HDAC activity was determined by the Fluor de Lys® Fluorescent Cellular Activity Assay (Enzo Life Sciences).
Also, MCF-7 cells were incubated for 24 h with increasing concentrations of compounds I-VIII and their HDAC activity was determined. The IC50 values for the inhibition of HDAC activity in the cells are depicted in FIG. 3C.

nine cancer cell lines = assay: MTT cytotoxicity, over the nine cancer cell lines
MCF-7 cells = assay: MTT cytotoxicity assay, MCF-7; assay type: cell-based, human; conditions: MCF-7, 72 h exposure, MTT; read-out: IC50 (median growth inhibitory concentration)
Description: (§1) Cisplatin (CDDP) and oxaliplatin (OXP) were dissolved just before the experiment in a 0.9% NaCl solution.
(§2) Human prostate adenocarcinoma (PC3) cells were obtained from European Collection of Cell Cultures (ECACC, Salisbury, UK). Human ovarian cancer cell lines A2780 and its cisplatin resistant variant, A2780cisR, were kindly provided by Prof.
(§3) Triplicate cultures were established for each treatment.

HCT-15 cells = assay: MTT cytotoxicity assay, HCT-15; assay type: cell-based, human
Description: (§4) Cisplatin (CDDP) and oxaliplatin (OXP) were dissolved just before the experiment in a 0.9% NaCl solution. […]
(§5) Cancer Res. 1988, 48, 589-601]. […] Triplicate cultures were established for each treatment.
(§6) MTT assay. […] Triplicate cultures were established for each treatment.
(§7) The two dimers, 3a and 3b, as well as compounds 1a and 2a were screened against six human cancer cell lines representative of lung (H157), colon (HCT-15), cervical (A431), ovarian (2008) and pancreatic (PSN1) cancers, along with melanoma (A375). Cytotoxicity was evaluated by means of the MTT test after 72 h of treatment and the in vitro antitumor potential of newly synthesized derivatives was compared to that of the reference metallo-drugs CDDP and OXP.

A2780 cells = assay: MTT cytotoxicity assay, A2780; assay type: cell-based, human; conditions: A2780, 72 h exposure, MTT; read-out: IC50 (median growth inhibitory concentration)
Description: (§8) Platinum(IV) complexes were dissolved in DMSO to stock solutions of 1 mg/mL just before the experiment, and a calculated amount of drug solution was added to the cell growth medium to a final solvent concentration of 0.5%, which had no discernible effect on cell killing. Cisplatin (CDDP) and oxaliplatin (OXP) were dissolved just before the experiment in a 0.9% NaCl solution.
as §2, §5

A549 cells = assay: MTT cytotoxicity assay, A549; assay type: cell-based, human; conditions: A549, 72 h exposure, MTT; read-out: IC50 (median growth inhibitory concentration)
Description: as §1, §2, §3

BxPC3 cells = assay: MTT cytotoxicity assay, BxPC3; assay type: cell-based, human; conditions: BxPC3, 72 h exposure, MTT; read-out: IC50 (median growth inhibitory concentration)
PC3 cells = assay: MTT cytotoxicity assay, PC3; assay type: cell-based, human; conditions: PC3, 72 h exposure, read-out: IC50 (median growth inhibitory concentration)
Description: as §1, §2, §3

A2780cisR cells = assay: MTT cytotoxicity assay, A2780cisR (cisplatin resistant); assay type: cell-based, human; conditions: for IC50: 72 h exposure, MTT, read-out: IC50 (median growth inhibitory concentration); for resistance factor: ratio IC50 resistant (A2780cisR) / sensitive (A2780) cells
Description: as §8, §2, §5

A498 cells = assay: MTT cytotoxicity assay, A498; assay type: cell-based, human; conditions: A498, 72 h exposure, read-out: IC50 (median growth inhibitory concentration)
Description: as §8, §2, §5

A375 cells = assay: MTT cytotoxicity assay, A375; assay type: cell-based, human
Description: as §4, §5, §6, §7

PSN1 cells = assay: MTT cytotoxicity assay, PSN1; assay type: cell-based, human; conditions: PSN1, 72 h, MTT
Description: as §6, §7

A431 cells = assay: MTT cytotoxicity assay, A431; assay type: cell-based, human; conditions: A431, 72 h
Description: as §6, §7

[2] = octanol/water partition, shake-flask method; assay type: physicochemical
Description: To quantify the hydrophobicity of the platinum complexes, partition coefficients (log P) values for octanol/water partition were measured using the shake-flask method.

[3] = HCT-15, 72 h exposure, MTT (Table 1), read-out: IC50 (median growth inhibitory concentration)
[4] = read-out: average IC50 values for the nine cancer cell lines, mean over nine cell lines, 72 h MTT
[5] = A375, 72 h exposure, MTT (Table 1), read-out: IC50 (median growth inhibitory concentration)
[6] = HCT-15, 72 h, MTT (Table 5), read-out: IC50 (μM) ± S.D.
[7] = A375, 72 h, MTT (Table 5), read-out: IC50 (μM) ± S.D.

Compound	IC50 (MCF-7 cells) [µM]	IC50 (HCT-15 cells; [3]) [µM]	IC50 (A2780 cells) [µM]	IC50 (A549 cells) [µM]	IC50 (BxPC3 cells) [µM]	IC50 (PC3 cells) [µM]	IC50 (A2780cisR cells; A2780cisR) [µM]	IC50 (nine cancer cell lines; [4]) [µM]	IC50 (A498 cells) [µM]	IC50 (A375 cells; [5]) [µM]	IC50 (HCT-15 cells; [6]) [µM]	IC50 (PSN1 cells) [µM]	IC50 (A431 cells) [µM]	IC50 (A375 cells; [7]) [µM]	resistance factor (A2780cisR cells)	further results
CCCC(CCC)C(=O)O [VPA, valproic acid, reference compound]																IC50 [1]: ~8000 µM; cytotoxicity IC50 values (in words) (nine cancer cell lines; uncoordinated ligands): millimolar range; also recorded: mM range
CC(=O)[O][Pt]([NH2])([NH2])([Cl])([Cl])[O]C(=O)CCCc1ccccc1 [VII, Ctc-[Pt(NH3)2(C2H3O2)(C10H11O2)Cl2]]	3.43 ± 0.14	5.17 ± 0.85	0.65 ± 0.04	7.16 ± 1.11	10.1 ± 1.69	4.34 ± 1.25	1.54 ± 0.27	4.8	8.42 ± 1.47	6.25 ± 1.94						factors more potent than cisplatin (nine cancer cell lines; in five out of the nine cell lines): 2.1-9 fold; IC50 (nine cancer cell lines; read-out: range of IC50 values over the cell lines, lowest-highest over nine cell lines): 0.65 to 10.1 µM
c,c,t-[Pt(NH3)2Cl2(DCA)(GABA)](TFA) [Compound 1a]											12.5 ± 3.58	4.74 ± 2.87	4.98 ± 1.63	2.81 ± 0.21		
C1CCNCC1.CCCC(CCC)C(=O)[O][Pt]([OH])([Cl])[Cl].CCCCN [Compound V, trans-[Pt(n-butylamine)(VPA)(OH) (piperidine) Cl2]]	8.8 ± 1.48	14.4 ± 2.05	1.18 ± 0.33	15.5 ± 1.13	4.43 ± 1.94	16.8 ± 1.41	1.29 ± 0.29	9.27	8.64 ± 0.95	12.4 ± 2.93					1.1	fold more potent/effective than cisplatin (A2780cisR cells; A2780cisR): roughly 11 fold
c,c,t-[Pt(DACH)(56Phen)(PhBu)(Succ)]Cl2 [Compound 2a]											6.25 ± 3.08	3.23 ± 1.12	4.15 ± 1.12	1.57 ± 0.16		
CCCC(CCC)C(=O)[O][Pt]([NH2])([NH2])([Cl])([Cl])[O]C(C)=O [II, Pt(NH3)2Cl2(C2H3O2)(C8H15O2)]]	5.74 ± 1.1	6.36 ± 1.03	1.02 ± 0.6	8.36 ± 1.14	3.54 ± 0.66	7.32 ± 1.24	1.62 ± 0.3	4.48	4.21 ± 0.95	2.17 ± 0.53					1.6	Log P [2]: 0.17 ± 0.02; fold reduction in potency compared with ctc-[Pt(NH3)2(VPA)2Cl2] (nine cancer cell lines; range over cell lines): 1.7-7.9 fold
